From patent US8785374B2, “Inhibitors of mammalian tight junction opening” (Alba Therapeutics Corporation, priority 2007, dated 2014)
No end group written: not given here.

Legend:
[1] = test system: CaCo2 monolayers (tight junctions); test: Inhibition of agonist-induced Lucifer Yellow flux through CaCo2 monolayers; conditions: inhibition of the increase in Lucifer Yellow permeability induced by SEQ ID NO:70 (FCIGRL); CaCo2 monolayers
Text: (§1) Measurement of the Inhibition of the Decrease in Trans Epithelial Electric Resistance (TEER) and Epithelial Flux of a Fluorescent Marker Lucifer Yellow
(§2) Antagonists of tight junctions can be identified by their ability to prevent or decrease the enhancement of the flux of compounds (e.g. Lucifer Yellow) through the monolayer induced by agonists of tight junctions (e.g., SEQ ID NO: 70). Antagonists of tight junctions can also be identified by their ability to prevent the decrease in TEER induced by agonists of tight junctions (e.g., SEQ ID NO: 70).
(§3) Tight junction antagonists can be identified using the following method:
(§4) Prepare Modified Hank's Balanced Salt Solution (MHBSS) by obtaining IL bottle of HBSS removing 10 ml of HBSS and replacing it with 10 ml HEPES buffer pH 7.0. Adjust pH to 7.4±0.1 using concentrated NaOH (10N).
(§5) Remove Caco-2 cells from incubator, grown on 12-well, […], polycarbonate Transwell® filters (Corning) and record passage number, date cells seeded and age in days.
(§6) Aspirate cell culture medium from both the apical (AP) and basolateral (BL) compartments, replacing with 0.5 ml and 1.5 ml of MHBSS, respectively. Incubate cells at 37° C. for 30 minutes.
(§7) Prepare a stock solution of the Antagonist Pretreatment Solution by dissolving the appropriate amount of antagonist in MHBSS. Vortex or sonicate the solution until it is clear then adjust pH to 7.4±0.1 using 1N NaOH. Preincubate each filter for 30 min with these solutions at 37° C. and 50 RPM.
(§8) Prepare stock solutions of Antagonist Treatment Solution by dissolving appropriate amounts of antagonist and agonist (for example, a peptide agonist such as a peptide having the sequence FCIGRL (SEQ ID NO: 70)) in 7.5 mM Lucifer Yellow solution in MHBSS. Vortex or sonicate the solution until it is clear then adjust pH to 7.4±0.1 using 1N NaOH.
(§9) Aspirate Antagonist Pretreatment Solution from the apical compartment of each filter (n=3 per condition) and replace with 0.5 ml of control and test solutions.
(§10) Place all plates into incubator set at 37° C. (±0.2), 50 RPM (±5) for a total of 180 minutes.
At t=60, 120 and 180 minutes remove 100 μl from each basolateral compartment and place it in a 96-well plate for Lucifer Yellow analysis, replace with 100 μl of HBSS.
Make a Lucifer Yellow standard curve with the following dilutions (7500 μM, 3750 μM, 750 μM, 375 μM, 75 μM, 37.5 μM, 7.5 μM, 3.75 μM, 0.75 μM) and pipette 100 μL of each into a 96-well plate except for the first three standards mentioned above which require a 1:10 dilution prior to transferring to the 96-well plate.
At t=0 make 1:10 dilutions of each starting Antagonist Treatment Solution mentioned above and pipette 100 μL of each into a 96-well plate.
At t=180 make 1:10 dilutions of Antagonist Treatment Solution from the apical compartment of each filter and pipette 100 μL of each into the 96-well plate.
Analyze each 96-well plate in a Tecan Spectra Fluor Plus using Magellan at 485 and 535 nm.
(§11) Cells: Caco-2 cells passage 40-60 grown on Transwell® plates for 21-28 days
(§12) SEQ ID NO: 70 is a 6-mer peptide tight junction agonist having the sequence FCIGRL. See US patent publication US 2005/0059593 A1. In the following tables + indicates attenuation of the effects of the tight junction agonist were observed and − indicates no attenuation of the effects of the tight junction agonist were observed.

[2] = test system: CaCo2 monolayers (tight junctions); test: Inhibition of agonist-induced decrease in trans epithelial electric resistance (TEER) of CaCo2 monolayers; conditions: inhibition of the reduction in TEER induced by SEQ ID NO:70 (FCIGRL); CaCo2 monolayers
Text: as §1, §2, §3, §4, §5, §6
Using the MilliCell®-ERS instrument (Millipore), measure and record the transepithelial electrical resistance (TEER) across each filter and record.
as §7, §8, §9, §10
At t=30, 60, 120 and 180 minutes, measure and record the transepithelial electrical resistance (TEER) across each filter using the MilliCell-ERS instrument.
as §11, §12

Substance | Reduced LY Permeability [1] | Prevented TEER Reduction [2]
His-Pro-Gly (HPG; Tight junction antagonist) [SEQ ID NO: 18] | + | +
Ile-Pro-Gly (IPG; Tight junction antagonist) [SEQ ID NO: 31] | + | +
Leu-Pro-Gly (LPG; Tight junction antagonist) [SEQ ID NO: 25] | + | +
Leu-Val-Gln-Pro-Gly (LVQPG; Tight junction antagonist) [SEQ ID NO: 4] | + | +
Lys-Pro-Gly (KPG; Tight junction antagonist) [SEQ ID NO: 24] | + | +
Met-Pro-Gly (MPG; Tight junction antagonist) [SEQ ID NO: 26] | + | +
Phe-Pro-Gly (FPG; Tight junction antagonist) [SEQ ID NO: 21] | + | +
Pro-Pro-Gly (PPG; Tight junction antagonist) [SEQ ID NO: 33] | − | −
Ser-Pro-Gly (SPG; Tight junction antagonist) [SEQ ID NO: 28] | + | +
Thr-Pro-Gly (TPG; Tight junction antagonist) [SEQ ID NO: 30] | + | −
Trp-Pro-Gly (WPG; Tight junction antagonist) [SEQ ID NO: 32] | + | +
Tyr-Pro-Gly (YPG; Tight junction antagonist) [SEQ ID NO: 29] | + | +
VLVQPG [SEQ ID NO: 3] | + | +
Val-Gln-Pro-Gly (VQPG; Tight junction antagonist) [SEQ ID NO: 5] | + | +
Val-Pro-Gly (VPG; Tight junction antagonist) [SEQ ID NO: 34] | + | −
